Holding throughout (format): biochemical
One test deals with α-synuclein (Homo sapiens, UniProt P37840). Briefly: ThT fluorescence assay, α-synuclein aggregation. To be noted: α-synuclein 4 μM, 96 hours, 37° C. The protocol:
(§1) The following procedures were used. The compounds were examined by circular dichroism (CD) to confirm their anti-amyloidogenic activity and were further evaluated for inhibition of both tau and α-synuclein aggregation in Thioflavin S (ThS) and ThT dye-binding fluorescence assays, respectively. The compounds were also evaluated in a MTT [3-(4,5-dimethylthiazol-2-yl)-2,5-diphenyltetrazolium bromide] cell viability assay (Kaneko, I., et al., J. Neurochem. (1995) 65: 2585-93). Pharmacokinetic (PK) testing was also performed. Compounds administered to mice (IP or PO dosing) had no toxicity at doses up to 300 mg/kg and were present in brain more than four hours after administration.
(§2) Dye-binding ThT/ThS protein aggregation assays for Aβ, tau and α-synuclein were performed as described in Example 8 of US2007/0015813.

Test [1] addresses T1, Aβ1-40 (Homo sapiens, UniProt P05067).
T1 construct: Both Aβ1-40 and Aβ1-42 were purchased from Anaspec; purchased Anaspec
Briefly: ThT fluorescence assay, inhibition of Aβ1-40 aggregation. The protocol:
The compounds of the invention were evaluated for activity against Aβ aggregation in a kinetic thioflavin T (ThT) fluorescence assay similar to that of Chalifour, R. J., et al., J. Biol. Chem. (2003) 278: 34874-81. IC50 values for inhibition of Aβ1-40 aggregation in the ThT fluorescence assay for a number compounds of the present invention were determined. Values were calculated by solving the equation y=(m2)/(1+(x/m3)^m4) where y is percent aggregation, x is compound concentration, and m3 is the concentration giving 50% aggregation (i.e. IC50), using KaleidaGraph 4.0 (Synergy Software). Dye-binding ThT/ThS protein aggregation assays for Aβ, tau and α-synuclein were performed as described in Example 8 of US2007/0015813.

The target in test [2] is T2, Tau 441 (Homo sapiens, UniProt P10636). Kind of test: ThS fluorescence assay, Tau 441 aggregation. To be noted: Tau 441 6 μM; compound 50 μM and 10 μM; 24 hours, 37° C., FIG. 15. The protocol: as §1, §2
For test [3], the target named is T2, Tau 441. Kind of test: Tris-tricine SDS-PAGE, Tau 441 self-assembly following ThS aggregation assay. To be noted: FIG. 10. The protocol:
(§3) Pre-cast polyacrylamide gels were purchased from NuSep (10-20% Tris-tricine-SDS). These were chosen for their large separation range of 2.5 to 205 kDa. Molecular weight markers were purchased from Sigma Aldrich and diluted twenty fold for individual use. Three buffers were used for this technique: 1) Sample buffer (1.25 mL 0.5 M Tris-HCl (pH 6.8), 2.5 mL glycerol, 2.0 mL 10% SDS, 0.2 mL 0.5% bromophenol blue, 3.55 mL distilled water) which was used as the leading band in the gel. 2) Cathode Buffer (12.11 g tris base, 17.92 g tricine, 1 g SDS, diluted to 1 L with distilled water) which was the inner buffer in the tank assembly. 3) Anode Buffer (5× concentrated: 121.1 g tris base in 1 L of distilled water, pH 8.9 adjusted with concentrated HCl) which was the outer buffer and loaded at 1× concentration. Both Aβ1-40 and Aβ1-42 were purchased from Anaspec.
(§4) Five solutions were required to stain the gels using the silver stain protocol: 1) Fixer 1 (40% methanol, 10% acetic acid, diluted to 1 L with Millie-Q water) 2) Fixer 2 (45 g anhydrous sodium acetate, 300 mL methanol, 5 mL 25% glutaraldehyde, diluted to 1 L with Millie-Q water), 3) a) Silver stain A (15 mL of 25% ammonia solution, 0.8 g sodium hydroxide, diluted to 950 mL with Millie Q water). b) Silver stain B (6 g of silver nitrate in 50 mL Millie Q water). Solution B was then slowly added to solution A. 4) Developer (0.1 g citric acid, 1 mL formaldehyde, diluted to 1 L with Millie-Q water), 5) Stop solution (50 mL acetic acid, diluted to 1 L with Millie-Q water).
(§5) Following a ThT (Aβ1-40) or ThS (Tau 441) aggregation assay, described in Example 8 of US2007/0015813, samples were immediately aspirated and stored in centrifuge tubes. 10 μL of each sample was transferred to a microfuge tube and diluted 1:1 with sample buffer before being incubated (37° C.) for 30 minutes and loaded in the precast gels (15 μL in each well). The gel was then run at 100 V for approximately one hour or until the leading band reached the bottom of the gel.
(§6) Once the gel had finished running, it was removed from its plastic case and placed in a tray for staining. Approximately 200-250 mL volume was used for all the solutions. The gel was first washed with distilled water briefly to rinse off the excess buffer from the tank. It was then immersed in Fixer 1 for 30 minutes. followed by Fixer 2 for 30 minutes. Once the gel was fixed it then underwent three water washes at 10 minutes per wash. After the water washes, the gel was stained for 30 minutes using the silver stain solution. Excess stain was removed using three four-minute water washes. The gel was then immersed in the developer solution to visualize the stain. This took place for approximately 5 minutes or until the desired intensity was reached. To immediately stop the developing process the gel was placed in the stop solution for 10 minutes.

Test [4] concerns the target T1, Aβ1-40. Briefly: Tris-tricine SDS-PAGE, Aβ1-40 self-assembly following ThT aggregation assay. To be noted: FIG. 9. As to the method: as §3, §4, §5, §6
[5] abbreviates: compound 100 μM and 20 μM, FIG. 16.
[6] abbreviates: compound 50 μM and 10 μM, FIG. 17.

The values below come from US8362066B2, “Compounds and methods for treating protein folding disorders” (Treventis Corporation, priority 2006, dated 2013).

Where only a bound is given, the exact number is not on record here.

T1 sequence (P05067 672-711 limits assumed): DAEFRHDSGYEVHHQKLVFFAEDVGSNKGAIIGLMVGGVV
T2 sequence (P10636 1-441 isoform P10636-8): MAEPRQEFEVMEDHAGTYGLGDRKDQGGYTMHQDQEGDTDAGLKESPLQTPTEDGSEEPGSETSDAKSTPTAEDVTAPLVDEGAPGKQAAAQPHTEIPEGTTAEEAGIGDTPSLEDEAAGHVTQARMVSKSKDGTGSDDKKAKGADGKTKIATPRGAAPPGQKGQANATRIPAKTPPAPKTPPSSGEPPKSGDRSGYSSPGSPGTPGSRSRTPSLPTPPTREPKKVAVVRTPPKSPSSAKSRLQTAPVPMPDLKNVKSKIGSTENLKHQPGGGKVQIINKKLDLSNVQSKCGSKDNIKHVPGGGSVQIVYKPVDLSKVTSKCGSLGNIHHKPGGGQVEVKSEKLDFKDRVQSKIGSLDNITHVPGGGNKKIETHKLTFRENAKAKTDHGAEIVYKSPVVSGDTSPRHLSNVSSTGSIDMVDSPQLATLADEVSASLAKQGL

What is called IC50 is the concentration that inhibits the measured activity by half. For the compound `Oc1ccc2[nH]cc(-c3c(O)c(O)cc4ccccc34)c2c1` [QR-0212, 5-hydroxy-3-(2,3-dihydroxyynathalen-1-yl)-1H-indole], the “inhibition of α-synuclein aggregation (ThT fluorescence)” value (“inhibition of α-synuclein aggregation” for short) on α-synuclein (setting [5]) is on record as “showed inhibition”. In addition, the IC50 on Aβ1-40 [1] turned out to be 8.2 µM.

Take `Nc1ccc2[nH]cc(-c3c[nH]c4ccc(Br)cc34)c2c1` [QR-0300]: the IC50 on Aβ1-40 [1] came out at 1.7 µM.

Consider `COc1ccc2[nH]cc(-c3c[nH]c4ccc(C#N)cc34)c2c1` [QR-0238], for which the IC50 on Aβ1-40 [1] turned out to be 20.9 µM.

For `N#Cc1ccc2[nH]cc(-c3c[nH]c4ccc(Br)cc34)c2c1` [QR-0240], on Aβ1-40 [1], the IC50 was 12 µM.

`O=C(O)c1cccc2c(-c3cc4ccccc4s3)c[nH]c12` [QR-0261]: the IC50 on Aβ1-40 [1] is 10.3 µM.

For `Oc1cc2ccccc2c(-c2ccc3c(c2)OCCO3)c1O` [QR-0231, 1-(2,3-Dihydrobenzo[b][1,4]dioxin-7-yl)-2,3-dihydroxynaphthalene], at Aβ1-40 [1], the IC50 came out at 27.8 µM.

In the case of `Oc1ccc2cc(-c3ccc4c(c3)OCCO4)ccc2c1` [QR-0229, 6-(2,3-Dihydrobenzo[b][1,4]dioxin-7-yl)naphthalene-2-ol], the IC50 on Aβ1-40 [1] stood at 18.9 µM.

Take `COc1ccc(Nc2ccc(Nc3ccc(OC)cc3)cc2)cc1` [QR-0292]: at Aβ1-40 [1], the IC50 came out at 0.54 µM.

Turning to `Oc1ccc2[nH]cc(CN3CCc4ccccc4C3)c2c1` [QR-0269], on Aβ1-40 [1], the IC50 was over 200 µM.

In the case of `O=C(O)c1cc2cc(-c3cc4ccccc4o3)ccc2c(Br)c1O` [QR-0244, 7-(Benzofuran-2-y)-4-bromo-3-hydroxynaphthalene-2-carboxylic acid], the “inhibition of Tau 441 aggregation (ThS fluorescence)” value against Tau 441 [2] was “greatly inhibited”. In addition, the “Tau 441 dimer and trimer bands (SDS-PAGE)” value on Tau 441 [3] is “appearance of dimer and trimer bands”. The “effect on Tau 441 self-assembly, monomer fragmentation (SDS-PAGE)” value on Tau 441 [3] (relative to control) was “decreased fragmentation of tau 441 monomer”. The IC50 at Aβ1-40 [1] was found to be 5.6 µM.

Turning to `Oc1cc2ccccc2c(-c2c[nH]c3ccccc23)c1O` [QR-0189], the “inhibition of α-synuclein aggregation” value against α-synuclein (setting [5]) is recorded as “showed inhibition”. Also, the IC50 at Aβ1-40 [1] is 19 µM.

`O=C(O)c1cccc2c(-c3cc4ccccc4o3)cn(Cc3ccccc3)c12` [QR-0284, 3-Benzofuran-2-yl-1-benzyl-1H-indole-7-carboxylic acid]: the IC50 at Aβ1-40 [1] was over 50 µM.

Regarding `O=C(O)c1cccc2c(-c3cc4ccccc4s3)cn(Cc3ccccc3)c12` [QR-0287, 3-(Benzo[b]thiophen-2-yl)-1-benzyl-1H-indole-7-carboxylic acid], the IC50 on Aβ1-40 [1] was 19.5 µM.

On to `O=C(O)c1cccc2c(-c3ccc4cc(O)ccc4c3)c[nH]c12` [QR-0258, 3-(2-Hydroxynaphthalen-6-yl)-1H-indole-7-carboxylic acid], for which the IC50 on Aβ1-40 [1] turned out to be 10 µM.

`O=C(O)c1ccc2c(-c3c[nH]c4ccc(O)cc34)c[nH]c2c1` [QR-0253]: on Aβ1-40 [1], the IC50 came out at 11.8 µM.

Consider `Oc1ccc(Nc2cccc(Nc3ccc(O)cc3)c2)cc1` [QR-0319], for which the IC50 on Aβ1-40 [1] came to 2.4 µM.

For `N#Cc1ccc2[nH]cc(-c3c(O)c(O)cc4ccccc34)c2c1` [QR-0321], on Aβ1-40 [1], the IC50 is 9.4 µM.

`Oc1ccc(C=Cc2cc(O)cc(O)c2)cc1` [resveratrol, reference compound]: at α-synuclein (setting [5]), the “inhibition of α-synuclein aggregation” value is recorded as “showed inhibition”.

For the compound `N#Cc1ccc2[nH]cc(-c3c[nH]c4ccc(O)cc34)c2c1` [QR-0276], on Aβ1-40 [4], the “effect on distribution of Aβ1-40 among states of assembly / monomer (SDS-PAGE)” value (“effect … of assembly / monomer (SDS-PAGE)” below) is “little effect”. Further, the IC50 on Aβ1-40 [1] is 16.5 µM.

With `COc1cccc(Nc2cccc(Nc3cccc(OC)c3)c2)c1` [QR-0315], the IC50 on Aβ1-40 [1] amounted to 5.7 µM.

On to `Oc1cc2ccccc2c(-c2cc3ccccc3o2)c1O` [QR-0164, 2-(2,3-Dihydroxynaphthalen-1-yl)-benzofuran], for which, on α-synuclein (setting [6]), the “inhibition of α-synuclein aggregation” value is on record as “showed inhibition”. Besides, the IC50 on Aβ1-40 [1] was 3 µM.

`O=C(O)c1ccc2[nH]cc(-c3c[nH]c4cccc(O)c34)c2c1` [QR-0176]: the “inhibition of α-synuclein aggregation” value against α-synuclein (setting [5]) is given as “showed inhibition”. For the same compound, the IC50 on Aβ1-40 [1] was 1.99 µM.

As for `O=C(O)c1ccc2c(-c3c[nH]c4ccc([N+](=O)[O-])cc34)c[nH]c2c1` [QR-0327], the IC50 on Aβ1-40 [1] worked out at 11.5 µM.

For the compound `COc1ccc2cc(-c3c[nH]c4ccc(C(=O)O)cc34)ccc2c1` [QR-0216], on Aβ1-40 [1], the IC50 turned out to be 35.5 µM.

Consider `COc1c(C(=O)O)cc2cc(-c3ccc4c(c3)OCCO4)ccc2c1Br` [QR-0282, 4-Bromo-7-(2,3-dihydrobenzo[b][1,4]dioxin-7-yl)-3-methoxynaphthalene-2-carboxylic acid], for which, on Aβ1-40 [4], the “Aβ1-40 dimer band (SDS-PAGE)” value is “appearance of a dimer band” and the “effect … of assembly / monomer (SDS-PAGE)” value was “increase in the concentration of Aβ1-40 monomer”.

`O=C(O)c1cccc2c(-c3cc4ccccc4o3)c[nH]c12` [QR-0256]: on Aβ1-40 [1], the IC50 amounted to 17.1 µM.

With `Oc1cccc(Nc2cccc(Nc3cccc(O)c3)c2)c1` [QR-0326], the IC50 on Aβ1-40 [1] was determined as 3.3 µM.

For the compound `Oc1ccc(Nc2cccc(Nc3ccc(O)cc3)c2)cc1` [QR-0325], the IC50 at Aβ1-40 [1] came out at 1.03 µM.

Turning to `O=C(O)c1ccc2c(c1)c(-c1ccc3cc(O)ccc3c1)cn2Cc1ccccc1` [QR-0162, 1-Benzyl-3-(6-hydroxynaphthalen-2-yl)-indole-5-carboxylic acid], on α-synuclein (setting [6]), the “inhibition of α-synuclein aggregation” value is reported as “showed inhibition”. Also, the IC50 at Aβ1-40 [1] was 17.5 µM.

Consider `Nc1ccc2[nH]cc(-c3c4ccccc4cc4c3[nH]c3ccc(N)cc34)c2c1` [QR-0302], for which the IC50 at Aβ1-40 [1] amounted to 3.2 µM.

As to `O=C(O)c1ccc2[nH]cc(-c3c[nH]c4ccc(O)cc34)c2c1` [QR-0142], the “effect … of assembly / monomer (SDS-PAGE)” value at Aβ1-40 [4] is listed as “increase in the concentration of Aβ1-40 monomer”.

`COc1ccc2[nH]cc(-c3c[nH]c4ccc([N+](=O)[O-])cc34)c2c1` [QR-0171]: the IC50 at Aβ1-40 [1] was 5.8 µM.

`N#Cc1ccc2[nH]cc(-c3ccc4cc(O)ccc4c3)c2c1` [QR-0313]: the IC50 on Aβ1-40 [1] came out at 6.5 µM.

In the case of `O=C(O)c1cccc2c(-c3c[nH]c4ccc(Br)cc34)c[nH]c12` [QR-0303], the IC50 on Aβ1-40 [1] came to 21 µM.

As to `Oc1ccc2cc(-c3c[nH]c4ccc(O)cc34)ccc2c1` [QR-0225, 5-Hydroxy-3-(2-hydroxynaphthalen-6-yl)-1H-indole], the IC50 at Aβ1-40 [1] turned out to be 7 µM.

With `COc1ccccc1Nc1cccc(Nc2ccccc2OC)c1` [QR-0316], the IC50 at Aβ1-40 [1] is over 50 µM.

Regarding `Oc1ccc2cc(-c3cc4ccccc4o3)ccc2c1Br` [QR-0297, 6-(Benzofuran-2-yl)-1-bromonaphthalen-2-ol], the IC50 on Aβ1-40 [1] worked out at 0.57 µM.
